# Test results: patent US9296687B2, “Modulators of HSP70/DnaK function and methods of use thereof” (The Trustees of the University of Pennsylvania, priority 2008, dated 2016)
# “Also recorded” adds a separate entry of the source.
# Tests used:
# U2OS cells = test: Long-lived protein degradation assay; type: cell-based, human; settings: 20 μM
# Description: The long-lived protein degradation assays were performed as described (Humbey et al., 2008; Pimkina et al., 2008), but with the following modifications. The cells were seeded at 30% confluency. The cells were then labeled at 37° C. for 14 h in L-valine-free medium supplemented with dialyzed FBS medium containing 0.2 mCi/ml of L-[^14C]valine (Amersham Pharmacia). After the radiolabeling period, unincorporated radioisotope was removed by three rinses with PBS (pH 7.4). Cells were then incubated at 37° C. in fresh complete media [Dulbecco's modified Eagle's medium (DMEM), 10% fetal bovine serum (FBS), 1% penicillin-streptomycin (PS)] containing 2 mM unlabeled valine for 10 h to allow the degradation of labeled short-lived proteins. Cells were then rinsed 3 times with PBS (pH 7.4), and grown in fresh complete media [DMEM, 10% FBS, 1% PS] containing either DMSO or 20 μM PES. Aliquots of the media (0.2 ml in duplicate) were taken at 0 h, 4 h, 8 h, 24 h, and 48 h and mixed with 0.2 ml of 1% bovine serum albumin and 0.4 ml of 40% trichloroacetic acid (v/v). […] Radioactivity in the aliquots was measured on a Beckman liquid scintillation system. The percentage of long-lived protein degraded was obtained by the formula % degradation=(^14C counts at timepoint/sum of ^14C counts at each time point+total cell-associated radioactivity)×100.
# [1] = test system: WI38 human fetal lung fibroblasts; test: MTT cell viability assay; type: cell-based; settings: except at the highest concentration tested (20 μM)
# Description: (§1) Cell viability assays were performed using an MTT (methyl thiazolyl tetrazolium) colorimetric assay (Roche Applied Science, Cat. No. 11 465 007 001), with the following modifications. Briefly, cells (1×10^4) were plated into 24 well-assay plates in 0.5 ml media and allowed to attach overnight. […] After the incubation period, 50 μl of the water-soluble MTT labeling reagent [3-[4,5-dimethylthiazol-2-yl]-2,5-diphenyl tetrazolium bromid] were added to the cells, and the cells were incubated for 4 h in a humidified chamber at 37° C. with 5% CO2. The metabolized insoluble formazan crystals were then solubilized using 0.5 ml of the Solubilization solution (10% SDS in 0.01M HCl) per well, and the resulting colored solutions were spectrophotometrically quantified at an absorbance of 570 nm.
# [2] = test system: H1299 human lung carcinoma cells; test: MTT cell viability assay; type: cell-based
# Description: as §1
# [3] = test system: normal human lung fibroblasts (IMR90); test: MTT cell viability assay; type: cell-based; settings: 24 h, except at the highest concentrations used
# Description: as §1
# FADU cells = test: Sulforhodamine B colorimetric assay, PES plus cisplatin; type: cell-based, human; settings: 0-100 μM, 1:1 ratio, 72 h
# Description: FIG. 20. PES and cisplatin act synergistically to kill cancer cells. […] Experiments were done in triplicate per condition.
# Cells (2×10^4) were plated into 96 well plates in 200 μl media and allowed to attach overnight. Cells were then treated with the indicated doses of PES, cisplatin or PES+Cisplatin. After 72 hr incubation period, cells were washed in PBS and 100 μl of ice cold 10% TCA was added for 1 hr at 4° C. Plates were washed four times with slow-running tap water and air-dried at room temperature. 100 μl of 0.057% SRB solution was added to the cells and incubated for 30 min at room temperature. Fixed cells were quickly rinsed four times with 1% acetic acid to remove unbound dye. The protein-bound dye was solubilized using 200 μl of 10 mM Tris base solution (pH 10.5) per well, and the wells were spectrophotometrically quantified at an absorbance of 540 nm. This methodology is identical to that in Shekan et al, JNCI 82:1107 (1990).
# E. coli = test: Growth curves and morphology of E. coli at 35° C. or 43° C.; type: cell-based
# Description: FIG. 3. PES and E. coli. (A) Identification of DnaK as Biotin-PES (B-PES) interacting protein in bacteria by liquid chromatography-tandem mass spectrometry, as described herein below. (B) The amino acid sequence of DnaK (SEQ ID NO: 7); the residues detected by mass spectrometry are shown in bold and underlined. (C) Growth curves of E. coli treated with different concentrations of PES either at 35° C. or 43° C. […] (D) Bacterial morphology (phase contrast microscopy) following treatment of the cells with PES at the indicated temperatures. Note evidence of filamentation and aggregation at higher concentrations of PES, especially at 43° C.
smiles,measurement,setting,value
"NS(=O)(=O)C#Cc1ccccc1 [PES, 2-Phenylethynesulfonamide]",basal degradation of long-lived proteins,U2OS cells,significantly reduced
same,cell viability,[1],no decrease in cell viability
same,cell viability,[2],effective at killing HI299 lung carcinoma cells; also recorded: dose-dependent loss of viability
same,PES-induced cell death after silencing of HSP70,"[2]; HSP70 shRNA, 20 μM PES 24 h",rescued PES-induced cell death
same,cell viability,[3],minimal effect
same,combination effect with cisplatin,FADU cells,acts synergistically with cisplatin
same,response of the bacteria to elevated temperatures,E. coli,"slow growth, filamentation, and reduced viability"
same,cell proliferation of E. coli,"E. coli; increasing concentrations, 35° C. or 43° C.",inhibited in a dose-dependent fashion
